Laboratory results reported in ChEMBL document CHEMBL3872266, “Synthesis and characterization of novel, conjugated, fluorescent DNJ derivatives for α-glucosidase recognition” (Bioorg Med Chem, 2017).

What was measured:
[1] = biological target: T1, Sucrase-isomaltase, intestinal (Rattus norvegicus, UniProt P23739); experiment: Inhibition of rat small intestinal brush border membrane isomaltase assessed as reduction in production of D-glucose using disaccharides as substrate incubated for 10 to 30 mins
T1 sequence (P23739 1-1013 limits assumed): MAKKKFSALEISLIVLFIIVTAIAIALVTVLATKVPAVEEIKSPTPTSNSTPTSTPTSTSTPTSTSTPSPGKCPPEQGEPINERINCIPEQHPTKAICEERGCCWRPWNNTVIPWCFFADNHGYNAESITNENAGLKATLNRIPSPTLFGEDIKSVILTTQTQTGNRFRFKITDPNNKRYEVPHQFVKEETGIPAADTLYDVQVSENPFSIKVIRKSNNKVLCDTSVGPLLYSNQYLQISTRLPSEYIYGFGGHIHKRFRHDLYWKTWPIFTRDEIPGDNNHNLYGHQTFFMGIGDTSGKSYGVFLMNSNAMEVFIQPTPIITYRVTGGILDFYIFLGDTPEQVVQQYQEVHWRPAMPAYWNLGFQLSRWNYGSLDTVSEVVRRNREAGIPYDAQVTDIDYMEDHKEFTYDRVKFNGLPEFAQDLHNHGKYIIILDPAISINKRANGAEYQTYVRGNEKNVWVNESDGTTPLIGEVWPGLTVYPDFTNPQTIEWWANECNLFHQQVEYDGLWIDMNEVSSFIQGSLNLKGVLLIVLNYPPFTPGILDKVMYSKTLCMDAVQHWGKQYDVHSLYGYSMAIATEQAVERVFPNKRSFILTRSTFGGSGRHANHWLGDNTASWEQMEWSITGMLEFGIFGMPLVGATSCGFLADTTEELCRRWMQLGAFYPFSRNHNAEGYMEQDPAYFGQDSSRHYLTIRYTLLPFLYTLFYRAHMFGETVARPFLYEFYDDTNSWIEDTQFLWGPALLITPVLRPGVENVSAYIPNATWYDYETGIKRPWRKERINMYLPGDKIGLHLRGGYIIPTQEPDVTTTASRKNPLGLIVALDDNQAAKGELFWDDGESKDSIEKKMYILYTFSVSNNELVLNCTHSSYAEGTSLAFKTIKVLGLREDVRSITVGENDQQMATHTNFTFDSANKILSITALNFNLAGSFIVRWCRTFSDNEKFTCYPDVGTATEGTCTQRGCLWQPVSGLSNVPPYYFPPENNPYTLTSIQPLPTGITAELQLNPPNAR
T1 sequence (P23739 1014-1841 limits assumed): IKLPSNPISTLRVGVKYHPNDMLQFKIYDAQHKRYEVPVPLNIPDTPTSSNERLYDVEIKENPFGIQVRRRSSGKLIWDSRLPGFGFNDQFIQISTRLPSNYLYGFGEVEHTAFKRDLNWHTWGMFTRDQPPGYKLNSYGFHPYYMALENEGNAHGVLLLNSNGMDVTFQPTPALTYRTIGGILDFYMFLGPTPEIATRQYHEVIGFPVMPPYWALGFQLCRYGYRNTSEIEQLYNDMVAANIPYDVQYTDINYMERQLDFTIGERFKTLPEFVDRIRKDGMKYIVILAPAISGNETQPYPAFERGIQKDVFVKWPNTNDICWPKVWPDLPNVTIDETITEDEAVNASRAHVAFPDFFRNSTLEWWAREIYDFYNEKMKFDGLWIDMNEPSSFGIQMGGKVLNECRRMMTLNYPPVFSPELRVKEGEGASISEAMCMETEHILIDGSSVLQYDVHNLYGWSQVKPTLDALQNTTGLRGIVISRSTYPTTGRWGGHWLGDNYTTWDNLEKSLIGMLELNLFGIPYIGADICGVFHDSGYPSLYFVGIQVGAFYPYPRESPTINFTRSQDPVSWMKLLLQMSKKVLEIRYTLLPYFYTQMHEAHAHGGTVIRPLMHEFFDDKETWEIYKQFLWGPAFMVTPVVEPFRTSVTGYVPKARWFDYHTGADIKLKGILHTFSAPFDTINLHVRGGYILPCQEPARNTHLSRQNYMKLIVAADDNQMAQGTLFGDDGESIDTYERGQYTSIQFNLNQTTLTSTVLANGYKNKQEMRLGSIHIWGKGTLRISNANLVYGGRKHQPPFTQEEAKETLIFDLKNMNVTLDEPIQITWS

[2] = biological target: T1, Sucrase-isomaltase, intestinal; experiment: Inhibition of rat small intestinal brush border membrane sucrase assessed as reduction in production of D-glucose using disaccharides as substrate incubated for 10 to 30 mins
[3] = Inhibition of rat small intestinal brush border membrane maltase assessed as reduction in production of D-glucose using maltose as substrate incubated for 10 to 30 mins
[4] = Inhibition of almond beta-glucosidase assessed as reduction in production of D-glucose using disaccharides as substrate incubated for 10 to 30 mins; design: species or system Prunus dulcis
[5] = Inhibition of rat small intestinal brush border membrane cellobiase assessed as reduction in production of D-glucose using disaccharides as substrate incubated for 10 to 30 mins
[6] = Inhibition of rice alpha-glucosidase assessed as reduction in production of D-glucose using disaccharides as substrate incubated for 10 to 30 mins; design: species or system Oryza sativa

Row | SMILES | IC50 [1] [nM] | IC50 [2] [nM] | IC50 [3] [nM] | IC50 [4] [nM] | IC50 [5] [nM] | IC50 [6] [nM]
1 | O=c1cc(C(F)(F)F)c2ccc(OCCCCn3cc(CCCCN4C[C@H](O)[C@@H](O)[C@H](O)[C@H]4CO)nn3)cc2o1 | 4100 | 950 | 540 | 3800 | 219000 | 57
2 | Cc1cc(=O)oc2cc(OCCCCn3cc(CCCCN4C[C@H](O)[C@@H](O)[C@H](O)[C@H]4CO)nn3)ccc12 | 1400 | 540 | 150 | 9300 | 53600 | 42
3 | OC[C@H]1NC[C@H](O)[C@@H](O)[C@@H]1O [DUVOGLUSTAT] |  |  |  | 85000 | 327000 | 50
4 | OCCN1C[C@H](O)[C@@H](O)[C@H](O)[C@H]1CO [MIGLITOL] |  |  | 590 | 378000 | 164000 | 99

More lines, in order of falling IC50 [5], values ahead:

Row | IC50 [1] [nM] | IC50 [2] [nM] | IC50 [3] [nM] | IC50 [4] [nM] | IC50 [5] [nM] | IC50 [6] [nM] | SMILES
5 | 4600 | 1900 | 910 | 97800 | 414000 | 91 | CN(C)c1cccc2c(S(=O)(=O)NCCOCCn3cc(CCCCN4C[C@H](O)[C@@H](O)[C@H](O)[C@H]4CO)nn3)cccc12
6 | 13600 | 1400 | 100 |  | 304000 | 110 | CCN(CC)c1ccc2cc(C(=O)NCCOCCOCCOCCn3cc(CCCCN4C[C@H](O)[C@@H](O)[C@H](O)[C@H]4CO)nn3)c(=O)oc2c1
7 | 6300 | 2700 | 650 |  | 175000 | 2100 | O=c1ccc2nc3ccc(OCCCCn4cc(CCCCN5C[C@H](O)[C@@H](O)[C@H](O)[C@H]5CO)nn4)cc3oc-2c1
